Reference: patent US20260008048A1, “POLYSILOXANE-BASED DEVICES WITH REDUCED DRUG ABSORPTION CHARACTERISTICS” (THE JOHNS HOPKINS UNIVERSITY, priority 2022, published 2026)
In brackets after ≈: the same amount, converted by molar mass. Entries after “also recorded” stand apart in the source; their conditions may differ.

Experiments:
[1] = Drug absorption after drug pretreatment of PDMS / PDMS-PEG samples; type: physicochemical; settings: 24 hour pretreatment
Experimental: We pretreated with 200 μM and 1 mM concentrations and 1 week of absorption was measured (FIG. 4A). […] For these experiments, we utilized a 24 hour pretreatment step.
Drug Pretreatment: PDMS, 1% block copolymer, and 2% block copolymer samples were prepared as mentioned above. […] Pretreated samples were then transferred to a fresh 100 μM drug solution for one week of absorption, and absorption was assessed as described.

[2] = 1-week drug absorption by PDMS / PDMS-PEG block copolymer plugs (UV-Vis); type: physicochemical; settings: 100 μM drug, 37° C.; for 1-week drug absorption with block copolymer versus PDMS: 1% and 2% BCP; for reduction of drug absorption by PDMS-PEG block copolymer additives: compared to PDMS
Experimental: Plug size was chosen to be similar to many microfluidic devices. After 1 week, the drug concentration was measured using UV-Vis spectroscopy, the area under the curve (AUC) was calculated, and each value was compared to drug standards to determine the percent drug loss (FIG. 2A).
PDMS-PEG Fabrication: PDMS was prepared as previously described in Scott, L. E., Mair, D. B., Narang, J. D., Feleke, K. & Lemmon, C. A. Fibronectin fibrillogenesis facilitates mechano-dependent cell spreading, force generation, and nuclear size in human embryonic fibroblasts. […] PDMS base was mixed with PDMS crosslinker at a […] for 5 minutes and was then degassed in a desiccator for 30 minutes. […] 8 mm plugs were taken using a biopsy punch and used in downstream experiments. This height/diameter was chosen to provide a surface to volume ratio of ˜0.2/mm, similar to that found in microfluidic devices.
Drug absorption experimental setup: Samples were added to glass vials. A 1.5 mL volume of 100 μM pharmaceutical solution was added, and the samples were fully submerged in the solution. […] Experimental samples were compared to controls, in which drug was incubated for one week without a PDMS sample. The mean of the controls was taken as the total drug concentration without absorption, and the percent drug loss was calculated as
UV-Vis: Following experimental absorption, 2 μL samples were measured (Nanodrop 2000, ThermoFisher Scientific). Measurements were taken in triplicate for each sample to decrease noise. […] The area under the curve was used to calculate the precent drug loss, compared to the AUC of the drug standards. Sample size equals three, with three independent measurements per sample.

[3] = Drug absorption after drug pretreatment of PDMS / PDMS-PEG samples; type: physicochemical; settings: 1 week pretreatment, 100 μM
[4] = cited from earlier work
[5] = cited from earlier work; remark: listed apart in the source
[6] = test system: engineered heart tissue (EHT); experiment: Engineered heart tissue (Mantarray) twitch force dose response
Description: We utilized the commercially available Mantarray (Curi Bio) engineered heart tissue (EHT) platform to perform these screens. In this platform, the EHT self assembles between two posts, one soft and bendable, and the other stiff and immovable (FIG. 6B). The soft post has an embedded magnet, and deflection of the post due to EHT contraction results in changes in magnetic flux. The tissues can be placed over magnetic sensor arrays in the Mantarray system to measure this change in flux and calculate the twitch forces and kinetics.
After drug was allowed to absorb for 1 week, dose response curves were measured for each condition. […]
Engineered Heart Tissue Fabrication: The Mantarray (Curi Bio) is a system designed for reproducible fabrication and functional measurements of EHTs in a 24-well plate format. […] Cardiomyocytes and HS27A stromal cells (ATCC) were lifted using 0.05% trypsin+EDTA, counted, and resuspended at 8.3 million cells/mL and 2.5 million cells/mL, respectively. […]
EHT Dosing and Contractile Measurements: EHTs were fabricated as described above and paced to measure average force output. […] EHTs were paced at 5.0 V 1 Hz with a pulse duration of 10 milliseconds and average force output readings were recorded using a Mantarray for 60 seconds to give an initial mean force average. […] Percent reduction in twitch force following exposure to drug was then calculated using the equation

[7] = 200 μM and 1 mM, PDMS, 1% and 2% BCP overall

## CC(C)(C)c1ccc(C(O)CCCN2CCC(C(O)(c3ccccc3)c3ccccc3)CC2)cc1 (stereo not shown) [Terfenadine]
[1]; [7]
  effect of pretreating with higher dosages on drug absorption: further decrease terfenadine absorption; also recorded: significant reductions
[2]
  1-week drug absorption with block copolymer versus PDMS: significantly reduced
  reduction of drug absorption by PDMS-PEG block copolymer additives: 61.8%
[3]; PDMS and PDMS-PEG BCP samples
  effect of pretreating with experimental dosages for 1 week on drug absorption: significantly decreases terfenadine absorption
[4]
  logP: 6.6
[5]
  Solubility in H2O: 0.0963 mg/mL (≈ 204 µM)

## COc1ccc(CCN(C)CCCC(C#N)(c2ccc(OC)c(OC)c2)C(C)C)cc1OC (stereo not shown) [Verapamil]
[6]; drug incubated 1 week at 37° C. with APC (2% block copolymer-1 mM)
  IC50 of drug incubated with APC compared to control: not significantly different from control
[6]; drug incubated 1 week at 37° C. with PDMS
  IC50 of drug incubated with PDMS compared to control and APC: significantly reduce the IC50 value

## CC(C)COCC(CN(Cc1ccccc1)c1ccccc1)N1CCCC1 (stereo not shown) [Bepridil]
[1]; [7]
  effect of pretreating with higher dosages on drug absorption: significant reductions
[1]; 1 mM, 2% BCP
  effect of pretreating with higher dosages on drug absorption: significantly decreases absorption
[1]; increasing dosage, 1% BCP
  effect of pretreating with higher dosages on drug absorption: a decrease, followed by an increase in drug absorption; also recorded: increased
[1]; increasing dosage, PDMS
  effect of pretreating with higher dosages on drug absorption: a decrease, followed by an increase in drug absorption; also recorded: increased
[2]
  1-week drug absorption with block copolymer versus PDMS: no significant improvement
[3]; PDMS only
  effect of pretreating with experimental dosages for 1 week on drug absorption: significantly decreases bepridil absorption
[4]
  logP: 5.2
[5]
  Solubility in H2O: 0.05655 mg/mL (≈ 154 µM)

## COCCc1ccc(OCC(O)CNC(C)C)cc1 (stereo not shown) [Metoprolol Succinate]
[1]; [7]
  effect of pretreating with higher dosages on drug absorption: significant reductions
[1]; 200 μM, 2% BCP
  effect of pretreating with higher dosages on drug absorption: significant increase in absorption; also recorded: increased
[1]; 1 mM, PDMS
  effect of pretreating with higher dosages on drug absorption: increased
[1]; increasing dosage, 1% BCP
  effect of pretreating with higher dosages on drug absorption: no significant change in absorption
[1]; increasing dosage, PDMS
  effect of pretreating with higher dosages on drug absorption: biphasic drug absorption pattern
[2]
  1-week drug absorption with block copolymer versus PDMS: significantly reduced
  reduction of drug absorption by PDMS-PEG block copolymer additives: 97.2%
[3]; PDMS and PDMS-PEG BCP samples
  effect of pretreating with experimental dosages for 1 week on drug absorption: no significant effect
[5]
  Solubility in H2O: 1000 mg/mL
